Test results as given in ChEMBL document CHEMBL5727708, “Spiro-condensed pyrrolidine derivatives as deubiquitylating enzymes (DUB) inhibitors” (2020).

Target: T1, OTU domain-containing protein 7B (Homo sapiens, UniProt Q6GQQ9)
T1 sequence (Q6GQQ9 whole entry): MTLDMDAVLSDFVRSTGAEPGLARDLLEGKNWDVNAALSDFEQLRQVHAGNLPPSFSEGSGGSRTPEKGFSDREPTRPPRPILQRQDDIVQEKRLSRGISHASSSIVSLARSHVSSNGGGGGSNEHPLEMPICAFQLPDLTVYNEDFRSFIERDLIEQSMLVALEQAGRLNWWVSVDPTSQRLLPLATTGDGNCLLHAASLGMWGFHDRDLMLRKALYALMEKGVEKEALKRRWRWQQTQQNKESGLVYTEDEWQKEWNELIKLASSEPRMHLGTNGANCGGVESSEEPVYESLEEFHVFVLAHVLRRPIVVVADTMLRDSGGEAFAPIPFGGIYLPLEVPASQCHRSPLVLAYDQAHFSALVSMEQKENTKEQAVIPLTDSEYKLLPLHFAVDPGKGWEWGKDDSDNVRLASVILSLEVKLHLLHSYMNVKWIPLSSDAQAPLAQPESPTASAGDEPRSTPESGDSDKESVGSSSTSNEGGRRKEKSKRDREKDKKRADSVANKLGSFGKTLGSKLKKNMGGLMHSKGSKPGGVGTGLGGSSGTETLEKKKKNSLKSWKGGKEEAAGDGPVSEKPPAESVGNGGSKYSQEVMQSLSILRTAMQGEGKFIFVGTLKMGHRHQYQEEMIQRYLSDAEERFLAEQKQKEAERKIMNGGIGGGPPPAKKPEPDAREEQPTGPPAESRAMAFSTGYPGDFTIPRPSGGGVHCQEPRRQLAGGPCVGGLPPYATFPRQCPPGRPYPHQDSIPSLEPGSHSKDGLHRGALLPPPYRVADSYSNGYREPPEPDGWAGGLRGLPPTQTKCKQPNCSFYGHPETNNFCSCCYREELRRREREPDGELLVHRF
Assay: Biochemical Assay: Dilution plates were prepared at 21 times the final concentration (2100 μM for a final concentration of 100 μM) in 50% DMSO in a 96-well polypropylene V-bottom plate (Greiner #651201). A typical 8-point dilution series to be 100, 30, 10, 3, 1, 0.3, 0.1, 0.03 μM final. Reactions were performed in duplicate in black 384 well plates (small volume, Greiner 784076) in a final reaction volume of 21 μl. Either 1 μl of 50% DMSO or diluted compound was added to the plate. Cezanne 1 was diluted in reaction buffer (40 mM Tris, pH 7.5, 0.005% Tween 20, 0.5 mg/ml BSA, 5 mM-beta-mercaptoethanol) to the equivalent of 0.005 μl/well and 10 μl of diluted Cezanne 1 was added to the compound. Enzyme and compound were incubated for 30 min at room temp. Reactions were initiated by the addition of 50 nM of TAMRA labelled peptide linked to ubiquitin via an iso-peptide bond as fluorescence polarisation substrate. Reactions were read immediately after addition of substrate and following a 2 hr incubation at room temperature. Readings were performed on a Pherastar Plus. λ Excitation 540 nm; λ Emission 590 nm.

- IC50: < 0.1 µM
Structure (SMILES): Cc1ccc2[nH]ncc2c1-c1cnc2c(c1)NC(=O)C1(CCN(C#N)C1)N2 (stereo unspecified)
